In ChEMBL document CHEMBL3124777, “Synthesis and biological evaluation of thiazoline derivatives as new antimicrobial and anticancer agents” (Eur J Med Chem, 2014):
In brackets after ≈: the same amount, converted by molar mass.

Tests used:
C6 [1] = assay: Cytotoxicity against rat C6 cells after 24 hrs by MTT assay; format: functional, cell-based; settings: C6, 24 h
NIH3T3 = assay: Cytotoxicity against mouse NIH/3T3 cells after 24 hrs by MTT assay; format: cell-based; settings: NIH3T3, 24 h
C6 [2] = assay: Cytotoxicity against rat C6 cells assessed as cell viability at 200 ug/ml after 24 hrs by MTT assay relative to control; format: functional; settings: C6, 24 h, read-out: Activity
C6 [3] = assay: Cytotoxicity against rat C6 cells assessed as cell viability at 100 ug/ml after 24 hrs by MTT assay relative to control; format: functional; settings: C6, 24 h, read-out: Activity
C6 [4] = assay: Cytotoxicity against rat C6 cells assessed as cell viability at 50 ug/ml after 24 hrs by MTT assay relative to control; format: functional; settings: C6, 24 h, read-out: Activity
C6 [5] = assay: Cytotoxicity against rat C6 cells assessed as cell viability at 25 ug/ml after 24 hrs by MTT assay relative to control; format: functional; settings: C6, 24 h, read-out: Activity
C6 [6] = assay: Cytotoxicity against rat C6 cells assessed as cell viability at 12 ug/ml after 24 hrs by MTT assay relative to control; format: functional; settings: C6, 24 h, read-out: Activity
C6 [7] = assay: Cytotoxicity against rat C6 cells assessed as cell viability at 6 ug/ml after 24 hrs by MTT assay relative to control; format: functional; settings: C6, 24 h, read-out: Activity
Candida albicans = assay: Antimicrobial activity against Candida albicans ATCC 22019 after 18 to 24 hrs by microbroth dilution method; format: functional
Fusarium culmorum = assay: Antimicrobial activity against wild type Fusarium culmorum after 48 to 72 hrs by microbroth dilution method; format: functional
Fusarium verticillioides = assay: Antimicrobial activity against Fusarium moniliforme NRRL 1866 after 48 to 72 hrs by microbroth dilution method; format: functional
Fusarium solani = assay: Antimicrobial activity against Fusarium solani NRRL 13414 after 48 to 72 hrs by microbroth dilution method; format: functional
Aspergillus ochraceus = assay: Antimicrobial activity against Aspergillus ochraceus NRRL 3174 after 48 to 72 hrs by microbroth dilution method; format: functional
Trichoderma harzianum = assay: Antimicrobial activity against Trichoderma harzianum NRRL 20565 after 48 to 72 hrs by microbroth dilution method; format: functional
Penicillium chrysogenum = assay: Antimicrobial activity against Penicillium chrysogenum NRRL 1951 after 48 to 72 hrs by microbroth dilution method; format: functional
Aspergillus parasiticus = assay: Antimicrobial activity against Aspergillus parasiticus NRRL 465 after 48 to 72 hrs by microbroth dilution method; format: functional
Bacillus subtilis = assay: Antimicrobial activity against Bacillus subtilis NRS-744 after 18 to 24 hrs by microbroth dilution method; format: functional
Micrococcus luteus = assay: Antimicrobial activity against Micrococcus luteus NRLL B-4375 after 18 to 24 hrs by microbroth dilution method; format: functional
Pseudomonas aeruginosa = assay: Antimicrobial activity against Pseudomonas aeruginosa […] after 18 to 24 hrs by microbroth dilution method; format: functional
Escherichia coli = assay: Antimicrobial activity against Escherichia coli ATCC 25922 after 18 to 24 hrs by microbroth dilution method; format: functional
Listeria monocytogenes = assay: Antimicrobial activity against Listeria monocytogenes ATCC 7644 after 18 to 24 hrs by microbroth dilution method; format: functional
Staphylococcus aureus = assay: Antimicrobial activity against Staphylococcus aureus NRRL B-767 after 18 to 24 hrs by microbroth dilution method; format: functional

MIC (Candida albicans) [µg/mL]	MIC (Fusarium culmorum) [µg/mL]	MIC (Fusarium verticillioides) [µg/mL]	MIC (Fusarium solani) [µg/mL]	MIC (Aspergillus ochraceus) [µg/mL]	MIC (Trichoderma harzianum) [µg/mL]	MIC (Penicillium chrysogenum) [µg/mL]	MIC (Aspergillus parasiticus) [µg/mL]	MIC (Bacillus subtilis) [µg/mL]	MIC (Micrococcus luteus) [µg/mL]	MIC (Pseudomonas aeruginosa) [µg/mL]	MIC (Escherichia coli) [µg/mL]	SMILES	IC50 (C6 [1]) [µg/mL]	IC50 (NIH3T3) [µg/mL]	viability at 200 µg/mL (C6 [2]) [%]	viability at 100 µg/mL (C6 [3]) [%]	viability at 50 µg/mL (C6 [4]) [%]	viability at 25 µg/mL (C6 [5]) [%]	viability at 12 µg/mL (C6 [6]) [%]	viability at 6 µg/mL (C6 [7]) [%]	other results
250 (≈ 577 µM)	250 (≈ 577 µM)	250 (≈ 577 µM)	250 (≈ 577 µM)	250 (≈ 577 µM)	250 (≈ 577 µM)	250 (≈ 577 µM)	250 (≈ 577 µM)	500 (≈ 1150 µM)	250 (≈ 577 µM)	250 (≈ 577 µM)	250 (≈ 577 µM)	Cc1ccc(-c2cs/c(=N/NC(=O)CSc3ncccn3)n2-c2ccccc2)cc1	85 (≈ 196 µM)	> 500	43.7	45.9	64.4	82.7	83	93.2	MIC (Listeria monocytogenes): 250 µg/mL (≈ 577 µM); MIC (Staphylococcus aureus): 250 µg/mL (≈ 577 µM)
250 (≈ 569 µM)	250 (≈ 569 µM)	250 (≈ 569 µM)	250 (≈ 569 µM)	250 (≈ 569 µM)	125 (≈ 284 µM)	250 (≈ 569 µM)	250 (≈ 569 µM)	500 (≈ 1140 µM)	250 (≈ 569 µM)	250 (≈ 569 µM)	250 (≈ 569 µM)	Cc1nnc(SCC(=O)N/N=c2/scc(-c3ccccc3)n2-c2ccccc2)s1	> 200	197 (≈ 447 µM)	59.2	61.8	63.9	65.9	72.5	72.4	MIC (Listeria monocytogenes): 250 µg/mL (≈ 569 µM); MIC (Staphylococcus aureus): 500 µg/mL (≈ 1140 µM)
250 (≈ 551 µM)	250 (≈ 551 µM)	250 (≈ 551 µM)	250 (≈ 551 µM)	250 (≈ 551 µM)	250 (≈ 551 µM)	250 (≈ 551 µM)	250 (≈ 551 µM)	500 (≈ 1100 µM)	250 (≈ 551 µM)	250 (≈ 551 µM)	250 (≈ 551 µM)	O=C(CSc1ncccn1)N/N=c1/scc(-c2ccc(Cl)cc2)n1-c1ccccc1	83.3 (≈ 183 µM)	397 (≈ 874 µM)	39.7	45.5	61.8	91.1	91.6	95.9	MIC (Listeria monocytogenes): 250 µg/mL (≈ 551 µM); MIC (Staphylococcus aureus): 500 µg/mL (≈ 1100 µM)
250 (≈ 556 µM)	250 (≈ 556 µM)	250 (≈ 556 µM)	250 (≈ 556 µM)	250 (≈ 556 µM)	250 (≈ 556 µM)	250 (≈ 556 µM)	250 (≈ 556 µM)	250 (≈ 556 µM)	250 (≈ 556 µM)	250 (≈ 556 µM)	250 (≈ 556 µM)	COc1ccc(-c2cs/c(=N/NC(=O)CSc3ncccn3)n2-c2ccccc2)cc1	102 (≈ 226 µM)	450 (≈ 1000 µM)	37.6	51.5	66.5	74	78.4	89.6	MIC (Listeria monocytogenes): 250 µg/mL (≈ 556 µM); MIC (Staphylococcus aureus): 250 µg/mL (≈ 556 µM)
250 (≈ 490 µM)	250 (≈ 490 µM)	250 (≈ 490 µM)	250 (≈ 490 µM)	250 (≈ 490 µM)	250 (≈ 490 µM)	250 (≈ 490 µM)	250 (≈ 490 µM)	250 (≈ 490 µM)	250 (≈ 490 µM)	250 (≈ 490 µM)	250 (≈ 490 µM)	N#Cc1ccc(-c2cs/c(=N/NC(=O)CSc3nnnn3-c3ccccc3)n2-c2ccccc2)cc1	> 200	453 (≈ 888 µM)	54	59.8	61.1	64.2	74.1	78.8	MIC (Listeria monocytogenes): 250 µg/mL (≈ 490 µM); MIC (Staphylococcus aureus): 500 µg/mL (≈ 979 µM)
250 (≈ 590 µM)	250 (≈ 590 µM)	250 (≈ 590 µM)	250 (≈ 590 µM)	250 (≈ 590 µM)	125 (≈ 295 µM)	250 (≈ 590 µM)	250 (≈ 590 µM)	250 (≈ 590 µM)	250 (≈ 590 µM)	250 (≈ 590 µM)	250 (≈ 590 µM)	Cn1nnnc1SCC(=O)N/N=c1/scc(-c2ccccc2)n1-c1ccccc1	67.7 (≈ 160 µM)	173 (≈ 409 µM)	26.8	38.8	56.2	64.2	80.7	85.2	MIC (Listeria monocytogenes): 250 µg/mL (≈ 590 µM); MIC (Staphylococcus aureus): 250 µg/mL (≈ 590 µM)
